In US4526892A, “Dimethylaminoalkyl-3-(ergoline-8'βcarbonyl)-ureas” (Farmitalia Carlo Erba, S.p.A., priority 1982, dated 1985):
Read-outs that look alike come from different tables or passages of the source.

Experiments:
prolactin secretion = experiment: Anti-prolactin activity: egg-nidation inhibition in rats; format: in vivo, rat (Sprague Dawley); details: Rattus norvegicus, po, 120 h, read-out: Nidation inhibition in rats ED50
Excerpt: The prolactin secretion inhibitory action of the compounds has been indirectly evaluated by determining the egg-nidation inhibitory action in rats. For the ergoline derivatives this activity is considered to be correlated with the anti-prolactin activity (E. FLUCKIGER and E. DEL POZO,Handb. exp. Pharmac. 49, 615, 1978), since prolactin is the only hypophysial hormone involved in the maintenance of the first part of pregnancy in rats (W. K. MORISHIGE and I. ROTHCHILD, Endocrinology 95, 260, 1974).
Pregnant Sprague Dawley rats weighing 200-250 g were used. The compounds to be tested, dissolved in diluted mineral acids, were administered orally to groups from six to eight rats on day 5 of pregnancy. The animals were sacrificed on day 14 and the uteri were examined. The absence of implantation sites was taken as the criterion of anti-prolactin activity. Several doses were tested for the ED50 evaluation. As reference standard Bromocriptine was used.

Emetic activity in dogs = details: dog, in vivo, po, observed for 6 hours; read-out: Emetic activity in dogs ED50
Excerpt: The emetic activity of the compounds was investigated by oral administration to male beagle dogs weighing 15-20 kg. […] Four to six animals per dose were employed for the ED50 evaluation. […] The emetic activity of the compounds is similar or lower than that of Bromocriptine. The ratio between activity and tolerance of the new ergoline derivatives accordingly is very high.

[1] = test system: spontaneously hypertensive male rats, strain SHR; experiment: Change in heart rate (HR) in SHR rats; format: in vivo, rat
Protocol: (§1) Four spontaneously hypertensive male rats, strain SHR, weighing 250-300 g for each group were used. The animals were treated once a day for four consecutive days. Drugs were administered by gastric gavage, suspended in 5% gum arabic (0.2 ml/100 g body weight) and blood pressure (BP) and heart rate (HR) were measured by indirected tail/cuff method (BP Recorder W+W). Blood pressure and heart rate were measured on the first and fourth days of treatment 1 hour before and 1 and 5 hours after drug administration. Hydralazine and α-methyl-Dopa were used as reference drugs.

[2] = test system: spontaneously hypertensive male rats, strain SHR; experiment: Anti-hypertensive activity: change in blood pressure (BP) in SHR rats; format: in vivo, rat
Protocol: as §1

[3] = 0.1 mg/kg os, 1st day, 1 hour after dosing
[4] = 0.1 mg/kg os, 1st day, 5 hours after dosing
[5] = 0.1 mg/kg os, 4th day, 1 hour after dosing
[6] = 0.1 mg/kg os, 4th day, 5 hours after dosing
[7] = 1 mg/kg os, 1st day, 1 hour after dosing
[8] = 1 mg/kg os, 1st day, 5 hours after dosing
[9] = 1 mg/kg os, 4th day, 1 hour after dosing
[10] = 1 mg/kg os, 4th day, 5 hours after dosing
[11] = 10 mg/kg os, 1st day, 1 hour after dosing
[12] = 10 mg/kg os, 1st day, 5 hours after dosing
[13] = 10 mg/kg os, 4th day, 1 hour after dosing
[14] = 10 mg/kg os, 4th day, 5 hours after dosing
[15] = 5 mg/kg os, 1st day, 1 hour after dosing
[16] = 5 mg/kg os, 1st day, 5 hours after dosing
[17] = 5 mg/kg os, 4th day, 1 hour after dosing
[18] = 5 mg/kg os, 4th day, 5 hours after dosing
[19] = 0.5 mg/kg os, 1st day, 1 hour after dosing
[20] = 0.5 mg/kg os, 1st day, 5 hours after dosing
[21] = 0.5 mg/kg os, 4th day, 1 hour after dosing
[22] = 0.5 mg/kg os, 4th day, 5 hours after dosing
[23] = os, all tested doses of the compound
[24] = 2 mg/kg os, 1st day, 1 hour after dosing
[25] = 2 mg/kg os, 1st day, 5 hours after dosing
[26] = 2 mg/kg os, 4th day, 1 hour after dosing
[27] = 2 mg/kg os, 4th day, 5 hours after dosing
[28] = 12.5 mg/kg os, 1st day, 1 hour after dosing
[29] = 12.5 mg/kg os, 1st day, 5 hours after dosing
[30] = 12.5 mg/kg os, 4th day, 1 hour after dosing
[31] = 12.5 mg/kg os, 4th day, 5 hours after dosing

C=CCN1C[C@H](C(=O)N(CC)C(=O)NCCCN(C)C)C[C@@H]2c3cccc4[nH]cc(c34)C[C@H]21 [Example 20, 1-(3'-dimethylaminopropyl)-3-ethyl-3-(6'-allylergoline-8'β-carbonyl)-urea]
ED50 (prolactin secretion; p.o., day 5 of pregnancy): 0.27 mg/kg

CCCN1C[C@H](C(=O)N(C(=O)NC(C)C)C(C)C)C[C@@H]2c3cccc4[nH]cc(c34)C[C@H]21 [Example 5, 1,3-diisopropyl-3-(6'-n-propylergoline-8'β-carbonyl)-urea]
ED50 (prolactin secretion; p.o., day 5 of pregnancy): 0.02 mg/kg | TD50 at 6 h (Emetic activity in dogs): 0.01 mg/kg

CO[C@]12C[C@@H](C(=O)N(C(=O)NC(C)(C)C)C(C)(C)C)CN(C)[C@@H]1Cc1cn(C)c3cccc2c13 [Example 17]
Change in HR [1, 3]: -2 beats/minute | Change in HR [1, 4]: +3 beats/minute | Change in HR [1, 5]: -4 beats/minute | Change in HR [1, 6]: -8 beats/minute | Change in HR [1, 7]: -20 beats/minute | Change in HR [1, 8]: -23 beats/minute | Change in HR [1, 9]: -27 beats/minute | Change in HR [1, 10]: -22 beats/minute | Change in HR [1, 11]: +15 beats/minute | Change in HR [1, 12]: -13 beats/minute | Change in HR [1, 13]: -2 beats/minute | Change in HR [1, 14]: +6 beats/minute | Effect on BP (in words) ([2]; 0.1 mg/kg b.w.): No effect | Change in BP [2, 3]: -5 mmHg | Change in BP [2, 4]: -7 mmHg | Change in BP [2, 5]: -4 mmHg | Change in BP [2, 6]: -10 mmHg | Change in BP [2, 7]: -20 mmHg | Change in BP [2, 8]: -19 mmHg | Change in BP [2, 9]: -43 mmHg | Change in BP [2, 10]: -66 mmHg | Effect on BP (in words) ([2]; 10 mg/kg b.w., 1st and 4th day): dose related as well as very marked | Change in BP [2, 12]: -60 mmHg | Change in BP [2, 13]: -59 mmHg | Change in BP [2, 14]: -93 mmHg | Hypotensive activity vs Hydralazine ([2]; compound 1 mg/kg vs Hydralazine 5 mg/kg, 4th day): much more remarkable | Hypotensive activity vs Hydralazine ([2]; compound 1 mg/kg vs Hydralazine 5 mg/kg, first day): comparable to that of Hydralazine | Hypotensive effect vs Hydralazine ([2]; compound 10 mg/kg b.w., 1st and 4th days): hypotensive effect larger than Hydralazine

NNc1nncc2ccccc12 [Hydralazine, reference compound]
Change in HR [1, 7]: +30 beats/minute | Change in HR [1, 8]: +35 beats/minute | Change in HR [1, 9]: +25 beats/minute | Change in HR [1, 10]: +15 beats/minute | Change in HR [1, 15]: +40 beats/minute | Change in HR [1, 16]: +45 beats/minute | Change in HR [1, 17]: +18 beats/minute | Change in HR [1, 18]: +15 beats/minute | Effect on HR (in words) ([1]; SHR rats, os): increase of HR | Change in BP [2, 7]: -5 mmHg | Change in BP [2, 8]: -15 mmHg | Change in BP [2, 9]: -5 mmHg | Change in BP [2, 10]: 0 mmHg | Change in BP [2, 15]: -40 mmHg | Change in BP [2, 16]: -20 mmHg | Change in BP [2, 17]: -20 mmHg | Change in BP [2, 18]: -7 mmHg

CC(C)NC(=O)N(C(=O)[C@@H]1C[C@@H]2c3cccc4[nH]cc(c34)C[C@H]2N(C)C1)C(C)C [Example 1, 1,3-diisopropyl-3-(6'-methylergoline-8'β-carbonyl)urea]
Change in HR [1, 19]: -20 beats/minute | Change in HR [1, 20]: -12 beats/minute | Change in HR [1, 21]: -20 beats/minute | Change in HR [1, 22]: -7 beats/minute | Change in HR [1, 7]: -30 beats/minute | Change in HR [1, 8]: -35 beats/minute | Change in HR [1, 9]: -35 beats/minute | Change in HR [1, 10]: -30 beats/minute | Change in BP [2, 19]: -27 mmHg | Change in BP [2, 20]: -20 mmHg | Change in BP [2, 21]: -20 mmHg | Change in BP [2, 22]: 0 mmHg | Change in BP [2, 7]: -40 mmHg | Change in BP [2, 8]: -37 mmHg | Change in BP [2, 9]: -40 mmHg | Change in BP [2, 10]: -32 mmHg | Hypotensive activity vs Hydralazine ([2]; doses not stated): greater and longer lasting hypotensive activity than Hydralazine | Effect on BP (in words) [2, 23]: marked decrease of BP in a dose dependent manner

CO[C@]12C[C@@H](C(=O)N(C(=O)NC(C)(C)C)C(C)(C)C)CN(C)[C@@H]1Cc1c[nH]c3cccc2c13 [Example 12, 1,3-di-t-butyl-3-(10'αmethoxy-6'-methylergoline-8'β-carbonyl)-urea]
Change in HR [1, 24]: -10 beats/minute | Change in HR [1, 25]: -10 beats/minute | Change in HR [1, 26]: -20 beats/minute | Change in HR [1, 27]: -12 beats/minute | Change in HR [1, 11]: 0 beats/minute | Change in HR [1, 12]: -30 beats/minute | Change in HR [1, 13]: +17 beats/minute | Change in HR [1, 14]: -10 beats/minute | Change in BP [2, 24]: -17 mmHg | Change in BP [2, 25]: -17 mmHg | Change in BP [2, 26]: -10 mmHg | Change in BP [2, 27]: -24 mmHg | Tolerance on the 4th day ([2]; 10 mg/kg): tolerance does not occur | Change in BP [2, 11]: -26 mmHg | Change in BP [2, 12]: -37 mmHg | Change in BP [2, 13]: -71 mmHg | Change in BP [2, 14]: -28 mmHg | Hypotensive activity vs Hydralazine ([2]; compound 10 mg/kg vs Hydralazine 5 mg/kg, 1st day): comparable activity to that of Hydralazine | Hypotensive activity vs Hydralazine ([2]; compound 10 mg/kg vs Hydralazine 5 mg/kg, 4th day): greater activity on the 4th day | Effect on BP (in words) [2, 23]: reduced BP in a dose dependent manner

CC(C)C[C@H]1C(=O)N2CCC[C@H]2[C@]2(O)O[C@](NC(=O)[C@@H]3C=C4c5cccc6[nH]c(Br)c(c56)C[C@H]4N(C)C3)(C(C)C)C(=O)N12 [2-bromo-α-ergocryptine, reference compound]
ED50 (prolactin secretion): 5.7 mg/kg | TD50 at 6 h (Emetic activity in dogs): 0.01 to 0.02 mg/kg

CCNC(=O)N(CCCN(C)C)C(=O)[C@@H]1C[C@@H]2c3cccc4[nH]cc(c34)C[C@H]2N(C)C1 [Example 13, 1-ethyl-3-(3'-dimethylaminopropyl)-3(6'-methylergoline-8'β-carbonyl)-urea]
ED50 (prolactin secretion): 0.3 mg/kg | TD50 at 6 h (Emetic activity in dogs): 0.01 mg/kg

CCCN1C[C@H](C(=O)N(CCCN(C)C)C(=O)NCC)C[C@@H]2c3cccc4[nH]cc(c34)C[C@H]21 [Example 21, 1-ethyl-3-(3'-dimethylaminopropyl)-3-(6'-n-propylergoline-8'β-carbonyl)-urea]
ED50 (prolactin secretion; p.o., day 5 of pregnancy): 0.02 mg/kg | TD50 at 6 h (Emetic activity in dogs): 0.02 to 0.04 mg/kg

C=CCN1C[C@H](C(=O)N(C)C(=O)NC)C[C@@H]2c3cccc4[nH]cc(c34)C[C@H]21 [Example 24, 1,3-Dimethyl-3-(6'-allylergoline-8'β-carbonyl)-urea]
ED50 (prolactin secretion; p.o., day 5 of pregnancy): 0.5 mg/kg

C=CCN1C[C@H](C(=O)N(CCCN(C)C)C(=O)NCC)C[C@@H]2c3cccc4[nH]cc(c34)C[C@H]21 [Example 19, 1-ethyl-3-(3'-dimethylaminopropyl)-3-(6'-allylergoline-8'βcarbonyl)-urea]
ED50 (prolactin secretion; p.o., day 5 of pregnancy): 0.03 mg/kg | TD50 at 6 h (Emetic activity in dogs): 0.02 mg/kg

CN1C[C@H](C(=O)N(C(=O)NC(C)(C)C)C(C)(C)C)C[C@@H]2c3cccc4c3c(cn4C)C[C@H]21 [Example 18, 1,3-di-tert-butyl-3-(1',6'-dimethylergoline-8'β-carbonyl)urea]
Change in HR [1, 7]: -22 beats/minute | Change in HR [1, 8]: -20 beats/minute | Change in HR [1, 9]: +7 beats/minute | Change in HR [1, 10]: -8 beats/minute | Change in HR [1, 28]: -10 beats/minute | Change in HR [1, 29]: -15 beats/minute | Change in HR [1, 30]: +2 beats/minute | Change in HR [1, 31]: +5 beats/minute | Change in BP [2, 7]: -15 mmHg | Change in BP [2, 8]: -10 mmHg | Change in BP [2, 9]: -8 mmHg | Change in BP [2, 10]: -14 mmHg | Effect on BP (in words) ([2]; 12.5 mg/kg b.w. (highest dose), 4th day): very remarkable on the 4th day of treatment and still lasting 5 hours after administration | Change in BP [2, 28]: -19 mmHg | Change in BP [2, 29]: -19 mmHg | Change in BP [2, 30]: -38 mmHg | Change in BP [2, 31]: -47 mmHg | Hypotensive activity vs Hydralazine ([2]; compound 12.5 mg/kg vs Hydralazine 5 mg/kg, 4th day): much more remarkable | Hypotensive activity vs Hydralazine ([2]; compound 12.5 mg/kg vs Hydralazine 5 mg/kg, first day): comparable to that of Hydralazine | Effect on BP (in words) [2, 23]: reduced BP with both the tested doses (12.5 and 1 mg/kg b.w.); this effect was dose dependent
